The numbers were not newly measured in US10011626B2, “Method for the purification of decitabine” (Johnson Matthey Public Limited Company, priority 2012, dated 2018), which cites them from elsewhere.

Consider `Nc1ncn([C@H]2CC(O)[C@@H](CO)O2)c(=O)n1` (stereo partly drawn) [decitabine, 4-amino-1-(2-deoxy-β-D-erythropentofuranosyI)-1,3,5-triazin-2-(1H)-one], for which the “solubility in 1,1,1,3,3,3-hexafluoro-2-propanol” value (solvent: 1,1,1,3,3,3-hexafluoro-2-propanol, slightly soluble) was “about 18 mg/mL”. Under “solvent: methyl sulfoxide”, the “solubility in methyl sulfoxide” value is on record as “approximately 37 mg/mL”. Moreover, under “solvent: water, sparingly soluble”, the solubility in water result is recorded as “about 8 mg/mL”.
